In patent US20240124442A1, “TRICYCLIC-AMIDO-BICYCLIC PRMT5 INHIBITORS” (AMGEN INC., priority 2021, published 2024):

What was measured:
HCT116 MTAP null cells = experiment: HCT116 MTAP null cell line proliferation / cell viability (CellTiter-Glo, 6 days); type: cell-based; settings: 144 h; HCT116 MTAP null cells, 6 days treatment, CellTiter-Glo cell viability; read-out: HCT-116 MTAP null IC50
Method: (§1) HCT116 Proliferation Activity
(§2) To assess selective anti-proliferative activity of compounds of the invention in cells that have loss expression of MTAP, an HCT-116 isogenic cell line pair was utilized where one cell line was engineered to genetically knockout both MTAP alleles. Cell viability was then assessed in both the parent HCT-116 cell line and the MTAP null cell line after 6 days of treatment with compounds of the present invention. Selective anti-proliferative activity in the MTAP null cell line indicates MTA-cooperative inhibition of PRMT5 and ability to inhibit growth of cancer cells that have loss of MTAP.
(§3) HCT116 MTAP null and WT cells were seeded in 96-well tissue culture plates in RPMI 1640 media+10% fetal bovine serum. Plates were incubated overnight at 37° C. and 5% CO2. Cells were then treated with an 8- or 9-point serial dilution of compound, using a top concentration of 1, or 10 μM, 1:3 serial dilution steps and, a DMSO-only control. Cells were incubated in the presence of drug for 6 days. Effects on cell viability were measured with the CellTiter-Glo® Luminescent Cell Viability Assay (Promega) per manufacturer's recommendation. Assay plates were read on an EnVision™ Multilabel Reader using the Ultra-Sensitive luminescence module. IC50 values were calculated with GraphPad Prism v 5.01 using symmetrical sigmoidal dose-response least squares fit with Hill slope fixed to −1 and top constrain to 100% or GeneData Screener using a 4-parameter logistic model to fit dose response curves.
(§4) Alternatively, compounds could be assayed with a 384 well plate format:
(§5) Compounds were pre-spotted into 384 well plates with a 22-point serial dilution of compound, using a top concentration of 10 or 50 μM, 1:2 serial dilution steps and, a DMSO-only control. HCT116 MTAP null and WT cells were then seeded as above and after 6 days effects on cell viability were measured with the CellTiter-Glo® Luminescent Cell Viability Assay (Promega). Assay plates were read as above and IC50 values were calculated with GeneData Screener using a 4-parameter logistic model to fit dose response curves. The reported IC50 represents the value where the curve transits 50% of control.

HCT116 WT cells = experiment: HCT116 WT (parent) cell line proliferation / cell viability (CellTiter-Glo, 6 days); type: cell-based; settings: Homo sapiens, HCT-116, 144 h, 6 days treatment
Method: as §1, §2, §3, §4, §5

| Structure (SMILES) | IC50 (HCT116 MTAP null cells) | IC50 (HCT116 WT cells) |
| --- | --- | --- |
| CN(C(=O)c1ccc2nc(N)c3cnn(C)c3c2c1)[C@@H]1COCc2c(F)cncc21 (single isomer, unassigned) [Example 407] | 0.554 µM | 23.3 µM |
| CN(C(=O)c1cc2c3c(c(N)nc2cc1F)COC3)C1COc2cc(C(F)(F)F)ncc21 (racemic) [Example 460, 4-amino-7-fluoro-N-methyl-N-((3R)-6-(trifluoromethyl)-2,3-dihydrofuro[3,2-c]pyridin-3-yl)-1,3-dihydrofuro[3,4-c]quinoline-8-carboxamide and 4-amino-7-fluoro-N-methyl-N-((3S)-6-(trifluoromethyl)-2,3-dihydrofuro[3,2-c]pyridin-3-yl)-1,3-dihydrofuro[3,4-c]quinoline-8-carboxamide] | 0.162 µM | 10.8 µM |
| CN(C(=O)c1cc2c3c(c(N)nc2cn1)COC3)[C@@H]1COc2nc(C(F)(F)F)ccc21 (single isomer, unassigned) [Example 335] | 0.272 µM | 10.9 µM |
| CN(C(=O)c1cc2c(cn1)nc(N)c1ccncc12)[C@@H]1COc2cc(C(F)(F)F)ccc21 [Example 223, 5-amino-N-methyl-N-((3S)-6-(trifluoromethyl)-2,3-dihydro-1-benzofuran-3-yl)pyrido[4,3-c][1,7]naphthyridine-9-carboxamide] | 0.023 µM | 0.437 µM |
| CN(C(=O)c1cc2c3c(c(N)nc2cc1Cl)COC3)[C@H]1COCc2c1ccc(C(F)(F)F)c2F (single isomer, unassigned) [Example 405] | 0.696 µM | 14.7 µM |
| Cc1nc2nc(N)c3cnn(C)c3c2cc1C(=O)N(C)[C@@H]1COCc2cc(C(F)(F)F)ccc21 [Example 300, 4-amino-N,1,7-trimethyl-N-((4S)-7-(trifluoromethyl)-3,4-dihydro-1H-2-benzopyran-4-yl)-1H-pyrazolo[4,3-c][1,8]-naphthyridine-8-carboxamide] | 0.016 µM | 0.225 µM |
| CN(C(=O)c1ccc2nc(N)c3cnn(C)c3c2c1)[C@H]1COCc2c1ccc(C(F)(F)F)c2F (single isomer, unassigned) [Example 417] | 0.841 µM | 6.11 µM |
| CN(C(=O)c1cc2c3c(c(N)nc2cc1Cl)COC3)[C@@H]1COCc2c1ccc(C(F)(F)F)c2F (single isomer, unassigned) [Example 404] | 0.009 µM | 0.25 µM |
| CN(C(=O)c1cc2c(cc1F)nc(N)c1cnn(C)c12)[C@@H]1COCc2cc(C(F)(F)F)ccc21 [Example 506, 4-amino-7-fluoro-N,1-dimethyl-N-((4S)-7-(trifluoromethyl)-3,4-dihydro-1H-2-benzopyran-4-yl)-1H-pyrazolo[4,3-c]quinoline-8-carboxamide] | 0.004 µM | 0.034 µM |
| CN(C(=O)c1cc2c3c(c(N)nc2cc1Cl)COC3)C1COc2cc(C(F)(F)F)cc(F)c21 (racemic) [Example 472, 4-amino-7-chloro-N-((3R)-4-fluoro-6-(trifluoromethyl)-2,3-dihydro-1-benzofuran-3-yl)-N-methyl-1,3-dihydrofuro[3,4-c]quinoline-8-carboxamide and 4-amino-7-chloro-N-((3S)-4-fluoro-6-(trifluoromethyl)-2,3-dihydro-1-benzofuran-3-yl)-N-methyl-1,3-dihydrofuro[3,4-c]quinoline-8-carboxamide] | 0.022 µM | 1.15 µM |
| CC(C)CN(C(=O)c1ccc2nc(N)c3cnn(C)c3c2c1)[C@H]1COCc2nc(C(F)(F)F)ccc21 [Example 505, 4-amino-1-methyl-N-(2-methylpropyl)-N-((5R)-2-(trifluoromethyl)-5,8-dihydro-6H-pyrano[3,4-b]pyridin-5-yl)-1H-pyrazolo[4,3-c]quinoline-8-carboxamide] | 0.244 µM | 12.1 µM |
| CN(C(=O)c1cc2c3c(c(N)nc2cc1Cl)COC3)[C@@H]1COCc2nc(C(F)(F)F)ccc21 [Example 274, 4-amino-7-chloro-N-methyl-N-((5S)-2-(trifluoromethyl)-5,8-dihydro-6H-pyrano[3,4-b]-pyridin-5-yl)-1,3-dihydrofuro-[3,4-c]quinoline-8-carboxamide] | 0.004 µM | 0.229 µM |
| COc1ccc2c(c1)COC[C@@H]2N(C)C(=O)c1cc2c(cc1F)nc(N)c1cnn(C)c12 (single isomer, unassigned) [Example 428] | 0.275 µM | 8.34 µM |
| Cc1n[nH]c2c1c(N)nc1cnc(C(=O)N(C)[C@@H]3COCc4nc(C(F)(F)F)ccc43)cc12 [Example 310, 4-amino-N,3-dimethyl-N-((5S)-2-(trifluoromethyl)-5,8-dihydro-6H-pyrano[3,4-b]pyridin-5-yl)-1H-pyrazolo-[4,3-c][1,7]naphthyridine-8-carboxamide] | 0.11 µM | 7.38 µM |
| CN(C(=O)c1cc2c(cc1F)nc(N)c1cnn(C)c12)[C@@H]1COCc2nc(C(F)(F)F)ccc21 [Example 507, 4-amino-7-fluoro-N,1-dimethyl-N-((5S)-2-(trifluoromethyl)-5,8-dihydro-6H-pyrano[3,4-b]pyridin-5-yl)-1H-pyrazolo[4,3-c]quinoline-8-carboxamide] | 0.008 µM | 0.162 µM |
| CN(C(=O)c1cc2c(cc1Cl)nc(N)c1cnn(C)c12)[C@H]1CCc2nc(C(F)(F)F)ccc21 (single isomer, unassigned) [Example 386] | 0.552 µM | 13.6 µM |
| CCN(C(=O)c1cc2c(cc1F)nc(N)c1cnn(C)c12)[C@H]1COc2cc(C(F)(F)F)ccc21 [Example 244, 4-amino-N-ethyl-7-fluoro-1-methyl-N-((3R)-6-(trifluoro-methyl)-2,3-dihydro-1-benzo-furan-3-yl)-1H-pyrazolo[4,3-c]quinoline-8-carboxamide] | 0.182 µM | 7.44 µM |

Next, values leading:

| IC50 (HCT116 MTAP null cells) | IC50 (HCT116 WT cells) | Structure (SMILES) |
| --- | --- | --- |
| 0.015 µM | 0.657 µM | CN(C(=O)c1ccc2nc(N)c3cnn(C)c3c2c1)[C@@H]1COc2cc(-c3cc(C(F)(F)F)ccc3F)ccc21 [Example 660, 4-amino-N-((3S)-6-(2-fluoro-5-(trifluoromethyl)phenyl)-2,3-dihydro-1-benzofuran-3-yl)-N,1-dimethyl-1H-pyrazolo[4,3-c]quinoline-8-carboxamide] |
| 0.006 µM | 0.511 µM | CN(C(=O)c1ccc2nc(N)c3cnn(C)c3c2c1)[C@@H]1COc2cc(-c3cnc(C(F)(F)F)s3)ccc21 [Example 656, 4-amino-N,1-dimethyl-N-((3S)-6-(2-(trifluoromethyl)-1,3-thiazol-5-yl)-2,3-dihydro-1-benzofuran-3-yl)-1H-pyrazolo[4,3-c]quinoline-8-carboxamide] |
| 0.01 µM | 0.116 µM | CN(C(=O)c1cc2c(cc1F)nc(N)c1cnn(C)c12)[C@@H]1COc2cc(C(F)(F)F)ccc21 (single isomer, unassigned) [Example 571] |
| 0.027 µM | 3.56 µM | CN(C(=O)c1ccc2nc(N)c3cnn(C)c3c2c1)[C@@H]1COc2cc(-c3cnc4c(c3)CC(=O)N4)ccc21 [Example 644, 4-amino-N,1-dimethyl-N-((3S)-6-(2-oxo-2,3-dihydro-1H-pyrrolo[2,3-b]pyridin-5-yl)-2,3-dihydro-1-benzofuran-3-yl)-1H-pyrazolo[4,3-c]quinoline-8-carboxamide] |
| 0.025 µM | 2.75 µM | CCOc1ccc2c(c1)OC[C@H]2N(C)C(=O)c1ccc2nc(N)c3cnn(C)c3c2c1 [Example 675, 4-amino-N-((3S)-6-ethoxy-2,3-dihydro-1-benzofuran-3-yl)-N,1-dimethyl-1H-pyrazolo[4,3-c]quinoline-8-carboxamide] |
| 0.014 µM | 1.31 µM | CN(C(=O)c1ccc2nc(N)c3cnn(C)c3c2c1)[C@@H]1COc2cc(C3CC3)ccc21 [Example 615, 4-amino-N-((3S)-6-cyclopropyl-2,3-dihydro-1-benzofuran-3-yl)-N,1-dimethyl-1H-pyrazolo[4,3-c]quinoline-8-carboxamide] |
| 0.077 µM | 3.8 µM | CN(C(=O)c1cc2c3c(c(N)nc2cn1)COC3)[C@@H]1COc2cc(C#N)ccc21 (single isomer, unassigned) [Example 541] |
| 0.005 µM | 0.228 µM | CN(C(=O)c1ccc2nc(N)c3cnn(C)c3c2c1)[C@@H]1COc2cc(-c3ccnc(F)c3F)ccc21 [Example 643, 4-amino-N-((3S)-6-(2,3-difluoro-4-pyridinyl)-2,3-dihydro-1-benzofuran-3-yl)-N,1-dimethyl-1H-pyrazolo[4,3-c]quinoline-8-carboxamide] |
| 0.075 µM | 6.51 µM | CN(C(=O)c1ccc2nc(N)c3cnn(C)c3c2c1)[C@H]1CCc2nc(-c3cnn(C)c3)ccc21 (single isomer, unassigned) [Example 624] |
